Measured values as given in patent publication US8188059B2, “Compounds and methods for modulating expression of GCGR” (Isis Pharmaceuticals, Inc., priority 2006, dated 2012).

Columns and labels:
Type in all cases: in vivo, mouse
GCGR mRNA = GCGR mRNA levels in liver of C57/BL6 mice, single i.p. dose (Example 4, Tables 35-41); conditions: 48 h
Protocol: (§1) Eight-week old male C57/BL6 mice (Jackson Laboratory, Bar Harbor, Me.) were administered a single dose of GCGR oligonucleotide by intraperitoneal injection at a concentration of […]. Each dose group consisted of four animals. Shown in Table 31 are the sequences, motifs and conjugates of the GCGR antisense compounds used in this study. Bolded residues indicate 2′-O-methoxyethyl (2′-MOE) moieties. All compounds comprise phosphorothioate internucleoside linkages throughout and each cytosine is replaced with 5-methylcytosine. ISIS 386626, ISIS 386627 and ISIS 386628 further comprise a C16 conjugate group attached to the 2′-O position of the sugar via a diamide linkage (2′-OCH2C(═O)N(H)(CH2)4N(H)C(═O)—(CH2)15CH3). GCGR antisense compounds target published GCGR sequences, including Genbank® Accession No. BC031885.1 (SEQ ID NO: 7).
(§2) Mice were sacrificed 48 hours following injection to determine serum transaminase levels (Table 32); liver, white adipose tissue (WAT), spleen and kidney weight (Table 33); cholesterol, triglyceride and glucose levels (Table 34); GCGR mRNA levels (Tables 35-41); and full-length and total oligonucleotide concentration in liver and kidney (Table 42). Endpoints were assessed using methods described herein and well known to those of ordinary skill in the art. Data is included from a pre-treatment bleed (Pre-Bleed) and post-treatment bleed (Post-Bleed).
To determine whether the phenotypic changes shown above correlated with a decrease in GCGR mRNA, treated animals were evaluated for levels of target mRNA in liver by real time PCR according to methods described herein. Tables 35 to 41 show results from direct comparisons of the antisense compounds targeting GCGR nucleic acid for their effect on target expression. Results are expressed as percent of saline control.

[1] = ALT & AST levels, C57/BL6 mice (Example 4, Table 32); conditions: for ALT Pre-Bleed / AST Pre-Bleed: pre-treatment bleed; for ALT Post-Bleed / AST Post-Bleed: 48 hours following injection
Protocol: as §1, §2

[2] = Organ weights: liver, white adipose tissue, spleen, kidney (Example 4, Table 33); conditions: 48 h, C57/BL6 mice
Protocol: as §1, §2

[3] = Triglyceride, cholesterol and glucose levels, pre-bleed and post-bleed (Example 4, Table 34); parameters: TRIG Pre-Bleed / TRIG Post-Bleed / CHOL Pre-Bleed / CHOL Post-Bleed / Glucose Pre-Bleed / Glucose Post-Bleed: unit not given here; conditions: C57/BL6 mice; for CHOL Pre-Bleed / Glucose Pre-Bleed / TRIG Pre-Bleed: pre-treatment bleed; for CHOL Post-Bleed / Glucose Post-Bleed / TRIG Post-Bleed: post-treatment bleed, 48 h
Protocol: as §1, §2

[4] = Total and full-length antisense compound concentrations in liver and kidney (Example 4, Table 42); conditions: C57/BL6 mice; single i.p. dose; 48 h; dose not given
Protocol: as §1, §2
Treatment with the 2-10-2 MOE gapmers led to a significant dose-dependent decrease in GCGR mRNA expression. […] To determine whether the observed increase in efficiency with the short antisense compounds is due to an increase in antisense compound accumulation, full-length and total antisense compound concentration in the liver and kidney were determined.

Substance: 386628 (antisense TGTCTTGCTGCTTT; chemistry not fully specified) [compound 386628]
- GCGR mRNA levels in liver (GCGR mRNA; 6.25 mg/kg single i.p., Table 38 comparison ISIS 148364 & ISIS 386628): 77% of saline control
- GCGR mRNA levels in liver (GCGR mRNA; 6.25 mg/kg single i.p., Table 41 comparison ISIS 386628 & ISIS 386594): 97% of saline control
- GCGR mRNA levels in liver (GCGR mRNA; 12.5 mg/kg single i.p., Table 38 comparison ISIS 148364 & ISIS 386628): 53% of saline control
- GCGR mRNA levels in liver (GCGR mRNA; 12.5 mg/kg single i.p., Table 41 comparison ISIS 386628 & ISIS 386594): 38% of saline control
- GCGR mRNA levels in liver (GCGR mRNA; 25 mg/kg single i.p., Table 38 comparison ISIS 148364 & ISIS 386628): 18% of saline control
- GCGR mRNA levels in liver (GCGR mRNA; 25 mg/kg single i.p., Table 41 comparison ISIS 386628 & ISIS 386594): 13% of saline control
- GCGR mRNA levels in liver (GCGR mRNA; 50 mg/kg single i.p., Table 38 comparison ISIS 148364 & ISIS 386628): 2% of saline control
- GCGR mRNA levels in liver (GCGR mRNA; 50 mg/kg single i.p., Table 41 comparison ISIS 386628 & ISIS 386594): 4% of saline control
- ALT Pre-Bleed ([1]; 6.25 mg/kg dose group): 22 IU/L
- AST Pre-Bleed ([1]; 6.25 mg/kg dose group): 40 IU/L
- ALT Pre-Bleed ([1]; 12.5 mg/kg dose group): 28 IU/L
- AST Pre-Bleed ([1]; 12.5 mg/kg dose group): 42 IU/L
- ALT Pre-Bleed ([1]; 25 mg/kg dose group): 24 IU/L
- AST Pre-Bleed ([1]; 25 mg/kg dose group): 40 IU/L
- ALT Pre-Bleed ([1]; 50 mg/kg dose group): 28 IU/L
- AST Pre-Bleed ([1]; 50 mg/kg dose group): 44 IU/L
- ALT Post-Bleed ([1]; single i.p. dose 6.25 mg/kg): 29 IU/L
- AST Post-Bleed ([1]; single i.p. dose 6.25 mg/kg): 59 IU/L
- ALT Post-Bleed ([1]; single i.p. dose 12.5 mg/kg): 35 IU/L
- AST Post-Bleed ([1]; single i.p. dose 12.5 mg/kg): 75 IU/L
- ALT Post-Bleed ([1]; single i.p. dose 25 mg/kg): 32 IU/L
- AST Post-Bleed ([1]; single i.p. dose 25 mg/kg): 57 IU/L
- ALT Post-Bleed ([1]; single i.p. dose 50 mg/kg): 68 IU/L
- AST Post-Bleed ([1]; single i.p. dose 50 mg/kg): 76 IU/L
- Organ weight: Kidney ([2]; 6.25 mg/kg single i.p.): 102 % saline control
- Organ weight: Liver ([2]; 6.25 mg/kg single i.p.): 98 % saline control
- Organ weight: Spleen ([2]; 6.25 mg/kg single i.p.): 151 % saline control
- Organ weight: WAT ([2]; 6.25 mg/kg single i.p.): 106 % saline control
- Organ weight: Kidney ([2]; 12.5 mg/kg single i.p.): 99 % saline control
- Organ weight: Liver ([2]; 12.5 mg/kg single i.p.): 101 % saline control
- Organ weight: Spleen ([2]; 12.5 mg/kg single i.p.): 114 % saline control
- Organ weight: WAT ([2]; 12.5 mg/kg single i.p.): 111 % saline control
- Organ weight: Kidney ([2]; 25 mg/kg single i.p.): 109 % saline control
- Organ weight: Liver ([2]; 25 mg/kg single i.p.): 102 % saline control
- Organ weight: Spleen ([2]; 25 mg/kg single i.p.): 113 % saline control
- Organ weight: WAT ([2]; 25 mg/kg single i.p.): 97 % saline control
- Organ weight: Kidney ([2]; 50 mg/kg single i.p.): 99 % saline control
- Organ weight: Liver ([2]; 50 mg/kg single i.p.): 104 % saline control
- Organ weight: Spleen ([2]; 50 mg/kg single i.p.): 126 % saline control
- Organ weight: WAT ([2]; 50 mg/kg single i.p.): 100 % saline control
- CHOL Pre-Bleed ([3]; 6.25 mg/kg group): 83
- Glucose Pre-Bleed ([3]; 6.25 mg/kg group): 228
- TRIG Pre-Bleed ([3]; 6.25 mg/kg group): 117
- CHOL Post-Bleed ([3]; 6.25 mg/kg single i.p.): 85
- Glucose Post-Bleed ([3]; 6.25 mg/kg single i.p.): 229
- TRIG Post-Bleed ([3]; 6.25 mg/kg single i.p.): 121
- CHOL Pre-Bleed ([3]; 12.5 mg/kg group): 90
- Glucose Pre-Bleed ([3]; 12.5 mg/kg group): 231
- TRIG Pre-Bleed ([3]; 12.5 mg/kg group): 90
- CHOL Post-Bleed ([3]; 12.5 mg/kg single i.p.): 94
- Glucose Post-Bleed ([3]; 12.5 mg/kg single i.p.): 240
- TRIG Post-Bleed ([3]; 12.5 mg/kg single i.p.): 123
- CHOL Pre-Bleed ([3]; 25 mg/kg group): 84
- Glucose Pre-Bleed ([3]; 25 mg/kg group): 210
- TRIG Pre-Bleed ([3]; 25 mg/kg group): 102
- CHOL Post-Bleed ([3]; 25 mg/kg single i.p.): 85
- Glucose Post-Bleed ([3]; 25 mg/kg single i.p.): 223
- TRIG Post-Bleed ([3]; 25 mg/kg single i.p.): 129
- CHOL Pre-Bleed ([3]; 50 mg/kg group): 88
- Glucose Pre-Bleed ([3]; 50 mg/kg group): 209
- TRIG Pre-Bleed ([3]; 50 mg/kg group): 102
- CHOL Post-Bleed ([3]; 50 mg/kg single i.p.): 95
- Glucose Post-Bleed ([3]; 50 mg/kg single i.p.): 232
- TRIG Post-Bleed ([3]; 50 mg/kg single i.p.): 98
- Full-length antisense compound concentration, Kidney [4]: 305 µg/g
- Full-length antisense compound concentration, Liver [4]: 202 µg/g
- Total antisense compound concentration, Kidney [4]: 496 µg/g
- Total antisense compound concentration, Liver [4]: 286 µg/g
